What all share (design): species or system mixed lysate of K562, MV4-11, THP-1, NCI-H1155
Assay [1] deals with Activin receptor type-1B ; ACVR1B ; P36896 (Homo sapiens, UniProt P36896). Conditions: DIA-MS residual binding; binder.
In assay [2] the target is Casein kinase I isoform gamma-2 ; CSNK1G2 ; P78368 (Homo sapiens, UniProt P78368). Conditions: DIA-MS residual binding; binder.
Assay [3] has as its target T1, Discoidin domain-containing receptor 2 ; DDR2 ; Q16832 (Homo sapiens, UniProt Q16832).
T1 sequence (Q16832 1-855): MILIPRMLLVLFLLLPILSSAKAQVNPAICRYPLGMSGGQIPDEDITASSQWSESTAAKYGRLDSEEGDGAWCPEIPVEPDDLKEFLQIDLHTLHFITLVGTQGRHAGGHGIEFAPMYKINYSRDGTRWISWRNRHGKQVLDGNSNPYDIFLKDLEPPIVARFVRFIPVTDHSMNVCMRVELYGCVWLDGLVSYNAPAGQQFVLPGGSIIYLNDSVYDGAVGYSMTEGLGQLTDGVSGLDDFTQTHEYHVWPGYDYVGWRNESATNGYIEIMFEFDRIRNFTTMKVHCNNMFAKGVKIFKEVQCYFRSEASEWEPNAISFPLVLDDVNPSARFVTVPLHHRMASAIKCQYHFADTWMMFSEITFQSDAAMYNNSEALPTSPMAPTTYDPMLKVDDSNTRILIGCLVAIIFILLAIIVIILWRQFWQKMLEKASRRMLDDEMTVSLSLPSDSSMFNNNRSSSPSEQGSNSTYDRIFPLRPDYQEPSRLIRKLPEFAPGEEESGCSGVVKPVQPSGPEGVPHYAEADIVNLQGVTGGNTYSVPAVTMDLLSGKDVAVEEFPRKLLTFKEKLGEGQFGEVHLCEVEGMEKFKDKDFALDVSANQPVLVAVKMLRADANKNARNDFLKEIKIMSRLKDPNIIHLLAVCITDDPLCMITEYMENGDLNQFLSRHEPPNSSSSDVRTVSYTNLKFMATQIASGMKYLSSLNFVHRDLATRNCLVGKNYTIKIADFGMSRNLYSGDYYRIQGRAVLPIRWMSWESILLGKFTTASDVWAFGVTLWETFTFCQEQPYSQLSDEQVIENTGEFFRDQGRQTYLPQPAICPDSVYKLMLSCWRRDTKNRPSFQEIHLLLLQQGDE
The settings on record: binder.

Assay [4] deals with T2, Dual specificity mitogen-activated protein kinase kinase 5 ; MAP2K5 ; Q13163 (Homo sapiens, UniProt Q13163).
T2 sequence (Q13163 1-448): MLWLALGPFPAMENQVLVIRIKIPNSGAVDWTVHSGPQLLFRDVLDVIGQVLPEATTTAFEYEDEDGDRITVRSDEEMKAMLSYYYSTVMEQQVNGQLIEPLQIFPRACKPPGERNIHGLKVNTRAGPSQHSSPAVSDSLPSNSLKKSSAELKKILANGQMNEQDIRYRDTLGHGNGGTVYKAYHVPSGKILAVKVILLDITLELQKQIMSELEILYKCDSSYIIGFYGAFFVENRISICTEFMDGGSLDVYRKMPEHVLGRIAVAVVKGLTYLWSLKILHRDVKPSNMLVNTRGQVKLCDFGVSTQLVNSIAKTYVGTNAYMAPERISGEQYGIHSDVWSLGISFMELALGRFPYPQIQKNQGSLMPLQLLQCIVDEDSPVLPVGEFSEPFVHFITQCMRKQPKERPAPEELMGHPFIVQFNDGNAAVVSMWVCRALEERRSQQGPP
Conditions: DIA-MS residual binding; binder.

Assay [5] has as its target Ephrin type-A receptor 5 ; EPHA5 ; P54756 (Homo sapiens, UniProt P54756). Conditions: DIA-MS residual binding; binder.
The target in assay [6] is MAP kinase-interacting serine/threonine-protein kinase 1 ; MKNK1 ; Q9BUB5 (Homo sapiens, UniProt Q9BUB5). Conditions: binder.
Sequence of MAP kinase-interacting serine/threonine-protein kinase 1 ; MKNK1 ; Q9BUB5 (Q9BUB5 whole entry, one chain of several): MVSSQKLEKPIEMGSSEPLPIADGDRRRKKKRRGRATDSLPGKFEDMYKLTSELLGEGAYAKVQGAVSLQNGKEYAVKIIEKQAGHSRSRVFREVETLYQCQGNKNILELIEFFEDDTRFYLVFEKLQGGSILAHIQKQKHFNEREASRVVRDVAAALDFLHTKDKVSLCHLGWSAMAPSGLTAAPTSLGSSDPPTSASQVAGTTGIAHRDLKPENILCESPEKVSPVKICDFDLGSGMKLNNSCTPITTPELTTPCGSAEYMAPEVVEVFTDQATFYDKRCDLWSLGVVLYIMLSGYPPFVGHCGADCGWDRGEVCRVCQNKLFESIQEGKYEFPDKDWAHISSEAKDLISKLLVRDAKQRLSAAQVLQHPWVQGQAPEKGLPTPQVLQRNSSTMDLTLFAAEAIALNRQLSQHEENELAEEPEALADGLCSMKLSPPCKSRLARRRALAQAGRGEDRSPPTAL
Assay [7] addresses Serine/threonine-protein kinase LMTK2 ; LMTK2 ; Q8IWU2 (Homo sapiens, UniProt Q8IWU2). The settings on record: DIA-MS residual binding; binder.
For assay [8], the target named is T3, Serine/threonine-protein kinase NLK ; NLK ; Q9UBE8 (Homo sapiens, UniProt Q9UBE8).
T3 sequence (Q9UBE8 1-527): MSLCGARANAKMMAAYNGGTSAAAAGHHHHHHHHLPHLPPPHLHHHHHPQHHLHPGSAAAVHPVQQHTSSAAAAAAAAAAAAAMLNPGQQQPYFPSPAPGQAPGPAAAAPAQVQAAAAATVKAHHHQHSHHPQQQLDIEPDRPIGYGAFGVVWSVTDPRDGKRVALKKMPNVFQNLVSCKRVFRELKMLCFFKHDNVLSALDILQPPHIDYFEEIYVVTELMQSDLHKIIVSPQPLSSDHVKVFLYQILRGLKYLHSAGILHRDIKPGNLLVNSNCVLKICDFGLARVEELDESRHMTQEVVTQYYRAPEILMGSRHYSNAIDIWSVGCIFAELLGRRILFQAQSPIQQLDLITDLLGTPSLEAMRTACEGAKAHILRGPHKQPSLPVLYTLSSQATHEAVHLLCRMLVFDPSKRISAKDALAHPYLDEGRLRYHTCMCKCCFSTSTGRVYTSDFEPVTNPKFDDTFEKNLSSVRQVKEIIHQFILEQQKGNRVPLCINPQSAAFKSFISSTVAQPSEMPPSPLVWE
Conditions: DIA-MS residual binding; binder.

Assay [9] deals with Tyrosine-protein kinase FRK ; FRK ; P42685 (Homo sapiens, UniProt P42685). The settings on record: DIA-MS residual binding; binder.
Sequence of Tyrosine-protein kinase FRK ; FRK ; P42685 (P42685 whole entry): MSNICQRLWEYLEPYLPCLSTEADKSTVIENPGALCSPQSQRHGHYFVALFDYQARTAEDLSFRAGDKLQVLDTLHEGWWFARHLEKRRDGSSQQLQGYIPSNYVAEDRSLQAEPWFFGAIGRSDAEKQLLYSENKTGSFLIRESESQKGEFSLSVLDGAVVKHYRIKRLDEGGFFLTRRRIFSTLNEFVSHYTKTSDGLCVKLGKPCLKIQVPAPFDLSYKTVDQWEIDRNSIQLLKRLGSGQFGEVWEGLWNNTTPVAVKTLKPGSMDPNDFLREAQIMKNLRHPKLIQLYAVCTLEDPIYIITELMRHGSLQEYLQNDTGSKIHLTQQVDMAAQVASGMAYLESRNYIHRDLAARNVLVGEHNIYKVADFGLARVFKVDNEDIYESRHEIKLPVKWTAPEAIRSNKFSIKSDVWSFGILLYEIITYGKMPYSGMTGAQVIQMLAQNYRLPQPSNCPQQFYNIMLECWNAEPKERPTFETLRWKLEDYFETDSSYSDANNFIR

Sequence of Casein kinase I isoform gamma-2 ; CSNK1G2 ; P78368 (P78368 whole entry, the tested form may be a part, canonical isoform): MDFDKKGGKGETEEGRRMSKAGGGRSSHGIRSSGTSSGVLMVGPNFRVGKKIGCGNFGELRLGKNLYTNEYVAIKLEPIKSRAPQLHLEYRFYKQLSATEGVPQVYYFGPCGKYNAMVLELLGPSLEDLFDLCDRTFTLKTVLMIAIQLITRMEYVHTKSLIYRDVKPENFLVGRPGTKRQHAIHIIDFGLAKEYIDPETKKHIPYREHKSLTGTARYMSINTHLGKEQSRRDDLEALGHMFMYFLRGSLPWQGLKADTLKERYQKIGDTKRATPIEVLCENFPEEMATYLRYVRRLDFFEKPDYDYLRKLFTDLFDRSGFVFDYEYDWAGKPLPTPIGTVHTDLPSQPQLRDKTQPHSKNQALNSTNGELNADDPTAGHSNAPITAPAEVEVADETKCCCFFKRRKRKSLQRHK
Sequence of Serine/threonine-protein kinase LMTK2 ; LMTK2 ; Q8IWU2 (Q8IWU2 whole entry, one chain of several): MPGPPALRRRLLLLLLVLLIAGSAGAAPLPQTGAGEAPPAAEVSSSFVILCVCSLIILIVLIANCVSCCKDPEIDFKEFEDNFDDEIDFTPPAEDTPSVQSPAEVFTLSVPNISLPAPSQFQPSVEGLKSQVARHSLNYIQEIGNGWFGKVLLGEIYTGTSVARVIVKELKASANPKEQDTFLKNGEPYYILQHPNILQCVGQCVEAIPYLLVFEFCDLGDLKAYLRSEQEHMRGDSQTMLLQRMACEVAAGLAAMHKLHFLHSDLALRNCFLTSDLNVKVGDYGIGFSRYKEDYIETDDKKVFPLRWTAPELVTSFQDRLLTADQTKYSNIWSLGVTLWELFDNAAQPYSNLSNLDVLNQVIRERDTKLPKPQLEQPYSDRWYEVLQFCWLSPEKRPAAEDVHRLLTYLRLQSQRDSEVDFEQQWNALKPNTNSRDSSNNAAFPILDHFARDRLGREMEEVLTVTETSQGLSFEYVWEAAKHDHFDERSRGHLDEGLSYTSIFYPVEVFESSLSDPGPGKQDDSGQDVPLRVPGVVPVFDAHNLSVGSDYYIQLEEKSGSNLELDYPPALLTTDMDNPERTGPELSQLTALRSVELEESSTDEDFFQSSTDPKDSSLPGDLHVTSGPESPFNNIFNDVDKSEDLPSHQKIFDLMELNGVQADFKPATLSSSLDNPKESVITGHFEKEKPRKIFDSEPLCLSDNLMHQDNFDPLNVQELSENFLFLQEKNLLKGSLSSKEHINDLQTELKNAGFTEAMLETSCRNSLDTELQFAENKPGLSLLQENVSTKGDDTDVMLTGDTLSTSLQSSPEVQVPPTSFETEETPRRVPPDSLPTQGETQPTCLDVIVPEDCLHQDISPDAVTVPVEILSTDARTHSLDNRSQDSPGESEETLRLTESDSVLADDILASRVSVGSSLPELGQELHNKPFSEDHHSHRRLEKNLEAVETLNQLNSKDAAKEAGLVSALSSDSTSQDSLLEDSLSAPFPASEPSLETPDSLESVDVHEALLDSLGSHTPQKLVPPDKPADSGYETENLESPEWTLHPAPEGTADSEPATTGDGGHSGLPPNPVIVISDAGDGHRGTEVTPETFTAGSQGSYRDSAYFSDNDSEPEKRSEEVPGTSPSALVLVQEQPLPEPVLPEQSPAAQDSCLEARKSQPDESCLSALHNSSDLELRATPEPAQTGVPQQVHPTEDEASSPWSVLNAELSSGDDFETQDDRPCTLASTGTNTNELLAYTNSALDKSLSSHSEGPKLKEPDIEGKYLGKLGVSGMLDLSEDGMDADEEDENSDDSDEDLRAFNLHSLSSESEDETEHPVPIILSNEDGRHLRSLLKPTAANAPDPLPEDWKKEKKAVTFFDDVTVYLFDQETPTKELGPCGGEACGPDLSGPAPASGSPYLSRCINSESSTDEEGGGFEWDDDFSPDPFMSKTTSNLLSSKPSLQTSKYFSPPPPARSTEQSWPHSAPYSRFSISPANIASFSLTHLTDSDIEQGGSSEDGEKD
Sequence of Ephrin type-A receptor 5 ; EPHA5 ; P54756 (P54756 whole entry): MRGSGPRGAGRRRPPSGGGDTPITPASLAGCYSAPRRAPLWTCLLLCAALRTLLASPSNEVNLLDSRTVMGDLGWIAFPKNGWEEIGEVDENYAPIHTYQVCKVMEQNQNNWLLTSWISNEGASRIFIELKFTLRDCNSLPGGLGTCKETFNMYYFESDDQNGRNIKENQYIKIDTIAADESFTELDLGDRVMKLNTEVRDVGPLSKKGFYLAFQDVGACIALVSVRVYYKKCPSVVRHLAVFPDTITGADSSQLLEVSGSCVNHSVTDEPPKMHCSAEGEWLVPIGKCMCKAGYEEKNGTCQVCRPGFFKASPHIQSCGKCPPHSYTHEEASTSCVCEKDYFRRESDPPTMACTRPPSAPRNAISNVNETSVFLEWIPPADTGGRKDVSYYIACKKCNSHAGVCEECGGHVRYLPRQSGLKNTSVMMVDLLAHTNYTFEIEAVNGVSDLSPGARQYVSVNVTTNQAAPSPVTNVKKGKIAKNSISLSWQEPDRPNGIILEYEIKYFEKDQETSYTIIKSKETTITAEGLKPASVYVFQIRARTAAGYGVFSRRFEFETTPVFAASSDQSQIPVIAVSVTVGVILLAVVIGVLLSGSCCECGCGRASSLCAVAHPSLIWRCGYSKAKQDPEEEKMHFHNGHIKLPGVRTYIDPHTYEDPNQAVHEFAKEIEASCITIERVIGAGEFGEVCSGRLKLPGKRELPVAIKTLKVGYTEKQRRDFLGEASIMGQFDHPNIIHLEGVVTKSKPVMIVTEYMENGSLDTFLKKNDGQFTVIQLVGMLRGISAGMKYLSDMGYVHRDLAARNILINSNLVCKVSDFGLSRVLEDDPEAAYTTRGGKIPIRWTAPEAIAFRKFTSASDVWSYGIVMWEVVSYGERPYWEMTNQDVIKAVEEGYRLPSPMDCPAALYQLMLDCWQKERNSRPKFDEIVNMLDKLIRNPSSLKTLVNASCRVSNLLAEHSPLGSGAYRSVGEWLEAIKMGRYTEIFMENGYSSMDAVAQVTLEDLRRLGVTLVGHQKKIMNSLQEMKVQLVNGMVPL
Sequence of Activin receptor type-1B ; ACVR1B ; P36896 (P36896 whole entry, canonical isoform): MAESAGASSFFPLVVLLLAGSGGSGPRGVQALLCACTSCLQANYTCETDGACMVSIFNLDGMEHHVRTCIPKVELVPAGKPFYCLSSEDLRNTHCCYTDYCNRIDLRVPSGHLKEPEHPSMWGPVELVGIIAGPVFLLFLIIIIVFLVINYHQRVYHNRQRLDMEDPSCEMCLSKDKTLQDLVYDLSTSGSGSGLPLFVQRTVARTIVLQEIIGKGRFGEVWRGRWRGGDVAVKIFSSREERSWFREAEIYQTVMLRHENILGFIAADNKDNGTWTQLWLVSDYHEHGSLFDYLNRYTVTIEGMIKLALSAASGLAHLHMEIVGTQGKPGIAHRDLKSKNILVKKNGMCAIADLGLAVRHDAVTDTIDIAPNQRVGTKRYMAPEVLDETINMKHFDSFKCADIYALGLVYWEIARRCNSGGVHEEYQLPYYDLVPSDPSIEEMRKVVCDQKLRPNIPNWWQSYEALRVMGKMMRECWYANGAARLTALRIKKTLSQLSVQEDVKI

On to `Cc1nc(Nc2ncc(C(=O)Nc3c(C)cccc3Cl)s2)cc(N2CCN(CCO)CC2)n1` [dasatinib], for which the “DIA-MS / % Intensity (30 µM/DMSO)” value in assay [1] came to 38.22%; in [2] it was 45.01%; in assay [3], 5.824%; in assay [4], 35.82%; in [5], 0.4604%; in assay [6], 27.84%. Moreover, the “DIA-MS / % Intensity (30 µM/DMSO)” value in assay [7] is given as 9.818%; in [8], 47.56%; in [9], 2.249%.

For the origin of these results see publication doi:10.1101/2024.08.13.607785v1 (biorxiv, 2024).
